Measurements taken from patent US11485742B2, “2-azaspiro[3.4]octane derivatives as M4 agonists” (NOVARTIS AG, priority 2019, dated 2022).

What was measured:
[1] = biological target: T1, human cloned CHRM4 receptor (Homo sapiens, UniProt P08173); experiment: CHRM4 Ca++ Flux Assay (M4_CHO cells, agonist mode); type: cell-based
T1 construct: expressed in transfected cells; host or cells: CHO-K1 (M4_CHO)
T1 sequence (P08173 1-479): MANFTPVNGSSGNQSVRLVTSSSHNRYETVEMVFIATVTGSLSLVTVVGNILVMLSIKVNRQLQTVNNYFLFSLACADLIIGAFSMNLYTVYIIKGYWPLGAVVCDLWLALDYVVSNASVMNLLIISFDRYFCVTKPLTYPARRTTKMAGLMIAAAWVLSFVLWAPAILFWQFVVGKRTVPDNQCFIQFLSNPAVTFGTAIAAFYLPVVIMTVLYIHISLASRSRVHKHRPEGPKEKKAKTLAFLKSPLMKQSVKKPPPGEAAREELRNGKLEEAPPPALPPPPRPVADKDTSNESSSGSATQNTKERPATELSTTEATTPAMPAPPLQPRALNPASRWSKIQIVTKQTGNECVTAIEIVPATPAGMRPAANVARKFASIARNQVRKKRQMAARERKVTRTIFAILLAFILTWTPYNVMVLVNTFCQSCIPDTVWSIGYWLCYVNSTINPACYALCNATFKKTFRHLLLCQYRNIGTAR
Procedure, shortened: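 Agonist-mode calcium flux in an M4-expressing CHO-K1 line: compounds were dosed at 11 points in triplicate and fluorescence was tracked for 3 min. Cells were preloaded with Ca++ dye and kept in −Ca/−Mg HBSS with 20 μM ATP for 60 min. Efficacy is scaled to carbachol EC100; EC50s come from four-parameter regression, geometric mean across runs.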

[2] = biological target: T2, human cloned CHRM3 receptor (Homo sapiens, UniProt P20309); experiment: CHRM3 Ca++ Flux Assay (M3_CHO cells, agonist mode); type: cell-based
T2 construct: expressed in transfected cells; host or cells: CHO-K1 (M3_CHO)
T2 sequence (P20309 whole entry): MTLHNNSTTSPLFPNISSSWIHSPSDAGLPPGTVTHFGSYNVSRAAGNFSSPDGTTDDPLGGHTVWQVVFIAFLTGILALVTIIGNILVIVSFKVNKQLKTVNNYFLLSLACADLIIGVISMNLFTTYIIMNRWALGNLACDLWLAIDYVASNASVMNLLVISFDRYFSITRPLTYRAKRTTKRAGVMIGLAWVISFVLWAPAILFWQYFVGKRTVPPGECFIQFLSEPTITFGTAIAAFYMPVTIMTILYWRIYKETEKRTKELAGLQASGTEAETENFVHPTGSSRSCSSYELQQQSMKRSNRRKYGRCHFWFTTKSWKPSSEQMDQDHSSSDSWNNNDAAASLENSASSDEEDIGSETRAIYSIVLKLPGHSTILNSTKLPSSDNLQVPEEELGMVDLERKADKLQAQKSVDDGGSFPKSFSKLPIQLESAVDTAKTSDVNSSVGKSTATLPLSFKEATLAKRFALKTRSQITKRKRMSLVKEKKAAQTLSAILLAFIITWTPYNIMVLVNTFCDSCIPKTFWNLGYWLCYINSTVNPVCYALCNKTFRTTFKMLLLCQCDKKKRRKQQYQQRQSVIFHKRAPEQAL
Procedure, shortened: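 Agonist-mode calcium mobilisation: compounds, 11 concentrations in triplicate, applied to stable M3_CHO or M5_CHO cells loaded with Ca++ dye, fluorescence followed 3 min. Efficacy expressed against carbachol EC100; EC curves by four-parameter nonlinear regression, geometric mean across independent runs.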

Emax ([1]; Percent Activity (PA), read-out: M4 FDSS PA %): 42%
EC50 ([1]; geometric mean if tested more than once, read-out: M4 FDSS EC50): 1410 nM
Emax ([2]; Percent Activity (PA) measured to EC100 of Carbachol, read-out: M3 FDSS PA %): 0%
EC50 ([2]; agonist mode, geometric mean if tested more than once, read-out: M3 FDSS EC50): > 25000 nM
Structure (SMILES): Fc1ccc(OC2CC3(COC3)C2)c(C2CCN([C@H]3COC4(C3)CN(c3nnco3)C4)CC2)c1 [Example 7A, (R)-7-(4-(2-((2-oxaspiro[3.3]heptan-6-yl)oxy)-5-fluorophenyl)piperidin-1-yl)-2-(1,3,4-oxadiazol-2-yl)-5-oxa-2-azaspiro[3.4]octane]
